Data from patent US11331369B2, “Endoparasitic depsipeptides” (Zoetis Services LLC, priority 2017, dated 2022).

Test system: microfilariae of Dirofilaria immitis
Test: Dirofilaria immitis, Microfilaria (DiMF) In vitro Assay
Assay type: cell-based
Conditions: 72 h, read-out: DiMF Minimum Effective Dose (MED), approximately 72 hours incubation, microfilariae assessed for survival or paralysis

SMILES | minimal effective concentration [µM]
Cc1nn(Cc2ccc(C[C@H]3OC(=O)[C@H](CC(C)C)N(C)C(=O)[C@@H](C)OC(=O)[C@H](CC(C)C)N(C)C(=O)[C@@H](Cc4ccc(Cn5cc(OC(C)C)c(C)n5)cc4)OC(=O)[C@H](CC(C)C)N(C)C(=O)[C@@H](C)OC(=O)[C@H](CC(C)C)N(C)C3=O)cc2)cc1OC(C)C [Example 1b-199, (3S,6R,9S,12R,15S,18R,21S,24R)-3,9,15,21-tetraisobutyl-6,18-bis[[4-[(4-isopropoxy-3-methyl-pyrazol-1-yl)methyl]phenyl]methyl]-4,10,12,16,22,24-hexamethyl-1,7,13,19-tetraoxa-4,10,16,22-tetrazacyclotetracosane-2,5,8,11,14,17,20,23-octaone] | 0.01 to 0.1
CC(C)C[C@H]1C(=O)O[C@H](Cc2ccc(Cn3nccc3C3(N)CC3)cc2)C(=O)N(C)[C@@H](CC(C)C)C(=O)O[C@H](C)C(=O)N(C)[C@@H](CC(C)C)C(=O)O[C@H](Cc2ccc(Cn3nccc3C3(N)CC3)cc2)C(=O)N(C)[C@@H](CC(C)C)C(=O)O[C@H](C)C(=O)N1C [Example 1b-218, (3S,6R,9S,12R,15S,18R,21S,24R)-6,18-bis(4-((5-(1-aminocyclopropyl)-1H-pyrazol-1-yl)methyl)benzyl)-3,9,15,21-tetraisobutyl-4,10,12,16,22,24-hexamethyl-1,7,13,19-tetraoxa-4,10,16,22-tetraazacyclotetracosan-2,5,8,11,14,17,20,23-octaone] | 0.01 to 0.1
CC(C)C[C@H]1C(=O)O[C@H](Cc2ccc(Cn3cc(-c4ccccc4)cn3)cc2)C(=O)N(C)[C@@H](CC(C)C)C(=O)O[C@H](C)C(=O)N(C)[C@@H](CC(C)C)C(=O)O[C@H](Cc2ccccc2)C(=O)N(C)[C@@H](CC(C)C)C(=O)O[C@H](C)C(=O)N1C [Example 2-3, (3S,6R,9S,12R,15S,18R,21S,24R)-6-benzyl-3,9,15,21-tetraisobutyl-4,10,12,16,22,24-hexamethyl-18-[[4-[(4-phenylpyrazol-1-yl)methyl]phenyl]methyl]-1,7,13,19-tetraoxa-4,10,16,22-tetrazacyclotetracosane-2,5,8,11,14,17,20,23-octaone] | 0.01 to 0.1
CC(C)C[C@H]1C(=O)O[C@H](Cc2ccc(Cn3cc(-c4ccc(F)cc4)cn3)cc2)C(=O)N(C)[C@@H](CC(C)C)C(=O)O[C@H](C)C(=O)N(C)[C@@H](CC(C)C)C(=O)O[C@H](Cc2ccccc2)C(=O)N(C)[C@@H](CC(C)C)C(=O)O[C@H](C)C(=O)N1C [Example 2-5, (3S,6R,9S,12R,15S,18R,21S,24R)-6-benzyl-18-[[4-[[4-(4-fluorophenyl)pyrazol-1-yl]methyl]phenyl]methyl]-3,9,15,21-tetraisobutyl-4,10,12,16,22,24-hexamethyl-1,7,13,19-tetraoxa-4,10,16,22-tetrazacyclotetracosane-2,5,8,11,14,17,20,23-octaone] | 0.01 to 0.1
CC(C)C[C@H]1C(=O)O[C@H](Cc2ccc(Cn3cc(C(C)(C)C)cn3)cc2)C(=O)N(C)[C@@H](CC(C)C)C(=O)O[C@H](C)C(=O)N(C)[C@@H](CC(C)C)C(=O)O[C@H](Cc2ccccc2)C(=O)N(C)[C@@H](CC(C)C)C(=O)O[C@H](C)C(=O)N1C [Example 2-8, (3S,6R,9S,12R,15S,18R,21S,24R)-6-benzyl-18-[[4-[(4-tert-butylpyrazol-1-yl)methyl]phenyl]methyl]-3,9,15,21-tetraisobutyl-4,10,12,16,22,24-hexamethyl-1,7,13,19-tetraoxa-4,10,16,22-tetrazacyclotetracosane-2,5,8,11,14,17,20,23-octaone] | 0.01 to 0.1
CCc1cnn(Cc2ccc(C[C@H]3OC(=O)[C@H](CC(C)C)N(C)C(=O)[C@@H](C)OC(=O)[C@H](CC(C)C)N(C)C(=O)[C@@H](Cc4ccccc4)OC(=O)[C@H](CC(C)C)N(C)C(=O)[C@@H](C)OC(=O)[C@H](CC(C)C)N(C)C3=O)cc2)c1 [Example 2-9, (3S,6R,9S,12R,15S,18R,21S,24R)-6-benzyl-18-[[4-[(4-ethylpyrazol-1-yl)methyl]phenyl]methyl]-3,9,15,21-tetraisobutyl-4,10,12,16,22,24-hexamethyl-1,7,13,19-tetraoxa-4,10,16,22-tetrazacyclotetracosane-2,5,8,11,14,17,20,23-octaone] | 0.01 to 0.1
Cc1nn(Cc2ccc(C[C@H]3OC(=O)[C@H](CC(C)C)N(C)C(=O)[C@@H](C)OC(=O)[C@H](CC(C)C)N(C)C(=O)[C@@H](Cc4ccccc4)OC(=O)[C@H](CC(C)C)N(C)C(=O)[C@@H](C)OC(=O)[C@H](CC(C)C)N(C)C3=O)cc2)c(C)c1C [Example 2-11, (3S,6R,9S,12R,15S,18R,21S,24R)-6-benzyl-3,9,15,21-tetraisobutyl-4,10,12,16,22,24-hexamethyl-18-(4-((3,4,5-trimethyl-1H-pyrazol-1-yl)methyl)benzyl)-1,7,13,19-tetraoxa-4,10,16,22-tetraazacyclotetracosan-2,5,8,11,14,17,20,23-octaone] | 0.01 to 0.1
CCOC(=O)c1cnn(Cc2ccc(C[C@H]3OC(=O)[C@H](CC(C)C)N(C)C(=O)[C@@H](C)OC(=O)[C@H](CC(C)C)N(C)C(=O)[C@@H](Cc4ccccc4)OC(=O)[C@H](CC(C)C)N(C)C(=O)[C@@H](C)OC(=O)[C@H](CC(C)C)N(C)C3=O)cc2)c1 [Example 2-12, ethyl 1-(4-(((2R,5S,8R,11S,14R,17S,20R,23S)-14-benzyl-5,11,17,23-tetraisobutyl-4,8,10,16,20,22-hexamethyl-3,6,9,12,15,18,21,24-octaoxo-1,7,13,19-tetraoxa-4,10,16,22-tetraazacyclotetracosan-2-yl)methyl)benzyl)-1H-pyrazole-4-carboxylate] | 0.001 to 0.01
CC(=O)c1cnn(Cc2ccc(C[C@H]3OC(=O)[C@H](CC(C)C)N(C)C(=O)[C@@H](C)OC(=O)[C@H](CC(C)C)N(C)C(=O)[C@@H](Cc4ccccc4)OC(=O)[C@H](CC(C)C)N(C)C(=O)[C@@H](C)OC(=O)[C@H](CC(C)C)N(C)C3=O)cc2)c1 [Example 2-13, (3S,6R,9S,12R,15S,18R,21S,24R)-6-(4-((4-acetyl-1H-pyrazol-1-yl)methyl)benzyl)-18-benzyl-3,9,15,21-tetraisobutyl-4,10,12,16,22,24-hexamethyl-1,7,13,19-tetraoxa-4,10,16,22-tetraazacyclotetracosan-2,5,8,11,14,17,20,23-octaone] | 0.01 to 0.1
Cc1nn(Cc2ccc(C[C@H]3OC(=O)[C@H](CC(C)C)N(C)C(=O)[C@@H](C)OC(=O)[C@H](CC(C)C)N(C)C(=O)[C@@H](Cc4ccccc4)OC(=O)[C@H](CC(C)C)N(C)C(=O)[C@@H](C)OC(=O)[C@H](CC(C)C)N(C)C3=O)cc2)cc1Br [Example 2-16, (3S,6R,9S,12R,15S,18R,21S,24R)-6-benzyl-18-(4-((4-bromo-3-methyl-1H-pyrazol-1-yl)methyl)benzyl)-3,9,15,21-tetraisobutyl-4,10,12,16,22,24-hexamethyl-1,7,13,19-tetraoxa-4,10,16,22-tetraazacyclotetracosan-2,5,8,11,14,17,20,23-octaone] | 0.01 to 0.1
Cc1nn(Cc2ccc(C[C@H]3OC(=O)[C@H](CC(C)C)N(C)C(=O)[C@@H](C)OC(=O)[C@H](CC(C)C)N(C)C(=O)[C@@H](Cc4ccccc4)OC(=O)[C@H](CC(C)C)N(C)C(=O)[C@@H](C)OC(=O)[C@H](CC(C)C)N(C)C3=O)cc2)c(C)c1Br [Example 2-17, (3S,6R,9S,12R,15S,18R,21S,24R)-6-benzyl-18-(4-((4-bromo-3,5-dimethyl-1H-pyrazol-1-yl)methyl)benzyl)-3,9,15,21-tetraisobutyl-4,10,12,16,22,24-hexamethyl-1,7,13,19-tetraoxa-4,10,16,22-tetraazacyclotetracosan-2,5,8,11,14,17,20,23-octaone] | 0.01 to 0.1
CC(C)C[C@H]1C(=O)O[C@H](Cc2ccc(Cn3cc(C(F)F)cn3)cc2)C(=O)N(C)[C@@H](CC(C)C)C(=O)O[C@H](C)C(=O)N(C)[C@@H](CC(C)C)C(=O)O[C@H](Cc2ccccc2)C(=O)N(C)[C@@H](CC(C)C)C(=O)O[C@H](C)C(=O)N1C [Example 2-18, (3S,6R,9S,12R,15S,18R,21S,24R)-6-benzyl-18-(4-((4-(difluoromethyl)-1H-pyrazol-1-yl)methyl)benzyl)-3,9,15,21-tetraisobutyl-4,10,12,16,22,24-hexamethyl-1,7,13,19-tetraoxa-4,10,16,22-tetraazacyclotetracosan-2,5,8,11,14,17,20,23-octaone] | 0.001 to 0.01
CC(C)C[C@H]1C(=O)O[C@H](Cc2ccc(Cn3cc(C(F)(F)F)cn3)cc2)C(=O)N(C)[C@@H](CC(C)C)C(=O)O[C@H](C)C(=O)N(C)[C@@H](CC(C)C)C(=O)O[C@H](Cc2ccccc2)C(=O)N(C)[C@@H](CC(C)C)C(=O)O[C@H](C)C(=O)N1C [Example 2-20, (3S,6R,9S,12R,15S,18R,21S,24R)-6-benzyl-3,9,15,21-tetraisobutyl-4,10,12,16,22,24-hexamethyl-18-(4-((4-(trifluoromethyl)-1H-pyrazol-1-yl)methyl)benzyl)-1,7,13,19-tetraoxa-4,10,16,22-tetraazacyclotetracosan-2,5,8,11,14,17,20,23-octaone] | 0.01 to 0.1
CC(C)C[C@H]1C(=O)O[C@H](Cc2ccc(Cn3cc(S(=O)(=O)N4CCCCC4)cn3)cc2)C(=O)N(C)[C@@H](CC(C)C)C(=O)O[C@H](C)C(=O)N(C)[C@@H](CC(C)C)C(=O)O[C@H](Cc2ccccc2)C(=O)N(C)[C@@H](CC(C)C)C(=O)O[C@H](C)C(=O)N1C [Example 2-21, (3S,6R,9S,12R,15S,18R,21S,24R)-6-benzyl-3,9,15,21-tetraisobutyl-4,10,12,16,22,24-hexamethyl-18-(4-((4-(piperidin-1-ylsulfonyl)-1H-pyrazol-1-yl)methyl)benzyl)-1,7,13,19-tetraoxa-4,10,16,22-tetraazacyclotetracosan-2,5,8,11,14,17,20,23-octaone] | 0.01 to 0.1
